Structures are written as SMILES.

In one assay the test system is HeLa cells. Nature of the assay: HeLa cell 24 hr ploidy assay (DNA content). Conditions: Homo sapiens, HeLa, 4N ploidy, average, read-out: 24h_4NPloidy EC50_IP (uM Avg). It is filed as cell-based. How it is done:
HeLa cell 24 hr ploidy assay protocol
The purpose of this assay is to evaluate the ability of selected individual compounds to induce Deoxyribonucleic acid (DNA) content (ploidy) in cells through failed cell division. Cell cycle analysis is a rapid and efficient way to evaluate the status of DNA content (ploidy) of a given cell. HeLa cells (1×10^4 HeLa cells/well) in 100 ul of media (MEM+10% FBS) were plated in 96-well plates (Packard View) and cultured for 24 hrs at 37° C. maintained in a 5% CO2 atmosphere. […] The compounds were serially diluted in DMSO (0.25% final concentration). The cells were fixed (3.7% Formaldehyde and 1% glutaraldehyde) and permeabilized (1×PBS with 1% BSA and 0.2% Triton X-100) in preparation for nuclear staining. The well plates were stained for 45 minutes at RT in the dark using Hoechest 33342 nuclear stain at 0.5 ug.ml (Stock of 10 mg/ml, Invitrogen, CA, Cat #H3570). The nuclear stain was removed by aspiration and the cells were washed with wash buffer. A Cellomics Array Scan Vti plate reader was used to acquire the DNA ploidy data of the cells using Cell Cycle bioapplication. Numbers for each of “valid cell count/well”, “% of 4N cells” and “% of >4Ncells” were calculated with the assistance of an Activity Base 5.1ca software and dose curves were generated using an XLFit software. With XLFit, final EC50 IP and EC50 transit values, as well as the Max and Min, were calculated for each curve.
For the compound `COc1cnc2c(Oc3ccc(Nc4nnc(-c5ccc6c(c5)CC(C)(C)O6)c5ccccc45)cc3)ccnc2c1` [compound 136], the EC50 came to 0.099 µM.
Still for that read-out and setting: the value for `COc1cnc2c(Oc3ccc(Nc4nnc(-c5ccc(C)cn5)c5ccccc45)cc3)ccnc2c1` [compound 125] was 0.059 µM; that for `COc1cnc2c(Oc3ccc(Nc4nnc(N5CCN(C)CC5)c5ccccc45)cc3)ccnc2c1` [compound 85] was 0.085 µM.
For the compound `Cc1ccc(-c2nnc(Nc3ccc(Oc4ccnc5cc(C#N)ccc45)cc3)c3ccccc23)cc1` [compound 88], the EC50 is 0.006 µM.
Regarding `COc1ccccc1-c1nnc(Nc2ccc(Oc3ccnc4cc(C#N)ccc34)cc2)c2ccccc12` [compound 119], the EC50 is more than 1.2 µM.
Turning to `NC(=O)c1cc2nccc(Oc3ccc(Nc4nnc(-c5ccccc5)c5ccccc45)cc3F)c2s1` [compound 78], the EC50 was 0.031 µM.
On the same count and under the same terms, under `COc1cc2nccc(Nc3ccc(Nc4nnc(-c5ccccc5)c5ccccc45)cc3)c2cn1` [compound 124, N-(7-(methyloxy)-1,6-naphthyridin-4-yl)-N′-(4-phenyl-1-phthalazinyl)-1,4-benzenediamine] stands 0.025 µM; under `CN1CCN(c2nnc(Nc3ccc(Oc4ccnc5cc(C#N)ccc45)cc3)c3ccccc23)CC1` [compound 94], 0.09 µM.
The same measure, in the same setting: under `Brc1ccc2c(Oc3ccc(Nc4nnc(-c5ccccc5)c5ccccc45)cc3)ccnc2c1` [compound 133] stands 0.116 µM.
With `COc1cnc2c(Oc3ccc(Nc4nnc(-c5cccc(C)n5)c5ccccc45)cn3)ccnc2c1` [compound 128, N-(6-((7-(methyloxy)-1,5-naphthyridin-4-yl)oxy)-3-pyridinyl)-4-(6-methyl-2-pyridinyl)-1-phthalazinamine], the EC50 was more than 1.2 µM.
Same read-out and setting: the value for `CCc1cc(-c2ccccc2)nnc1Nc1ccc(Oc2ncnc3cc(OC)c(OC)cc23)cc1` [compound 148] was 0.039 µM.

Still in this assay, the particulars now being: Homo sapiens, HeLa, HeLa cells, 4N ploidy, average, read-out: 24h_4NPloidy EC50_IP (uM Avg).
On to `COc1cc2nccc(Sc3ccc(Nc4nnc(-c5ccccc5)c5ccccc45)cc3)c2nc1OC` [compound 597], for which the EC50 was 0.061 µM.
Still for that read-out and setting: under `COc1cnc2c(N(C)c3ccc(Nc4nnc(-c5cc(C)cs5)c5ccccc45)cc3)ccnc2c1` [compound 247] stands 0.112 µM; under `COc1cnc2c(Sc3ccc(Nc4nnc(N5CCC(F)(F)CC5)c5ccccc45)cc3)ccnc2c1` [compound 531], 0.049 µM; under `COc1cnc2c(Oc3ccc(Nc4nnc(-c5ccccc5)c5c4CCC5)cc3)ccnc2c1` [compound 367], 0.039 µM.
Still for that read-out and setting: under `Fc1cc(F)c2c(Oc3ccc(Nc4nnc(-c5ccccc5)c5ccccc45)cc3)ccnc2c1` [compound 276] stands 0.054 µM.
On the same count and under the same terms, the value for `COc1cnc2c(Oc3ccc(Nc4nnc(-c5cccc(C)c5)c5ccccc45)cc3)ccnc2c1` [compound 317] was 0.033 µM; that for `Oc1ccc2nccc(Sc3ccc(Nc4nnc(-c5ccc(Cl)cc5)c5ccccc45)cc3)c2c1` [Example 388, 4-(4-(4-(4-Chlorophenyl)phthalazin-1-ylamino)phenylthio)quinolin-6-ol] was 0.013 µM.
Take `COc1cc2nccc(Sc3ccc(Nc4nnc(-c5ccc(Cl)cc5)c5ccccc45)cc3)c2nc1OC` [compound 598]: the EC50 amounted to 0.028 µM.
Still for that read-out and setting: the value for `COCCOc1ccc(-c2nnc(Nc3ccc(Sc4ccnc5cc(OC)cnc45)cc3)c3ccccc23)cc1` [compound 474] was 0.024 µM; that for `COc1cnc2c(Oc3ccc(Nc4nnc(-c5ccccc5)cc4C(C)C)cc3)ccnc2c1` [compound 234] was 0.196 µM.
For the compound `COc1ccc(-c2nnc(Nc3ccc(Sc4ccnc5cc(OC)cnc45)cc3)c3ccccc23)cc1` [compound 357], the EC50 stood at 0.007 µM.
Same read-out and setting: under `COc1cnc2c(Oc3ccc(Nc4nnc(-c5ccc(Cl)cc5)c5ccccc45)cc3F)ccnc2c1` [compound 284] stands 0.011 µM; under `COc1ccc2c(Sc3ccc(Nc4nnc(-c5ccc(Cl)cn5)c5ccccc45)cc3)ccnc2c1` [compound 364], 0.005 µM.
Same read-out and setting: under `COc1cnc2c(Sc3ccc(Nc4nnc(N5CCCC(C)(C)C5)c5ccccc45)cc3)ccnc2c1` [compound 555] stands 0.064 µM.
Same read-out and setting: under `CCCc1cc(-c2ccccc2)nnc1Nc1ccc(Oc2ccnc3cc(C#N)ccc23)cc1` [compound 196] stands 0.342 µM.
For `N#Cc1ccc2c(Sc3ccc(Nc4nnc(-c5ccccc5)c5ccccc45)cc3)ccnc2c1` [compound 208], the EC50 is 0.023 µM.
The same measure, in the same setting: the value for `c1ccc(-c2nnc(Nc3ccc(Sc4ccnc5ccncc45)cc3)c3ccccc23)cc1` [compound 425] was 0.024 µM; that for `COc1cnc2c(Oc3ccc(Nc4nnc(-c5cc(C)no5)c5ccccc45)cc3)ccnc2c1` [compound 350] was 0.077 µM; that for `COc1cnc2c(Oc3ccc(Nc4nnc(-c5cnn(C)c5)c5ccccc45)cc3)ccnc2c1` [compound 216] was 0.074 µM.
Turning to `COc1cnc2c(Sc3ccc(Nc4nnc(N5CCn6ncnc6C5)c5ccccc45)cc3)ccnc2c1` [compound 579], the EC50 was found to be 0.054 µM.
The same measure, in the same setting: under `COc1cnc2c(Oc3ccc(Nc4nnc(-c5cc(CO)cs5)c5ccccc45)cc3)ccnc2c1` [Example 407, (5-(4-(4-(7-Methoxy-1,5-naphthyridin-4-yloxy)phenylamino)phthalazin-1-yl)thiophen-3-yl)methanol] stands 0.012 µM; under `CCc1cc(-c2ccc(C)s2)nnc1Nc1ccc(Oc2ccnc3cc(OC)cnc23)cc1` [compound 205, 4-ethyl-N-(4-((7-(methyloxy)-1,5-naphthyridin-4-yl)oxy)phenyl)-6-(5-methyl-2-thienyl)-3-pyridazinamine], 0.074 µM; under `COc1cnc2c(Sc3ccc(Nc4nnc(-c5cccc(Cl)c5)c5ccccc45)cc3)ccnc2c1` [compound 516], 0.025 µM.
Same read-out and setting: under `COc1cnc2c(Oc3ccc(Nc4nnc(-c5cc(C)c(C)s5)c5ccccc45)cc3)ccnc2c1` [compound 260] stands 0.002 µM; under `Cn1cncc1-c1cc2nccc(Oc3ccc(Nc4nnc(-c5ccc(Cl)cc5)c5ccccc45)cc3)c2s1` [compound 249], 0.008 µM; under `COc1cnc2c(Sc3ccc(Nc4nnc(N5CCN6C[C@H](F)C[C@H]6C5)c5ccccc45)cc3)ccnc2c1` [compound 600], 0.007 µM.
Still for that read-out and setting: the value for `Cc1noc(-c2cc3nccc(Sc4ccc(Nc5nnc(-c6ccc(Cl)cc6)c6ccccc56)cc4)c3s2)n1` [compound 323] was 0.131 µM; that for `C[Si](C)(C)c1cc2nccc(Sc3ccc(Nc4nnc(Cl)c5ccccc45)cc3)c2o1` [compound 484] was more than 1.2 µM.
With `CCc1cc(-c2ccc(C)cc2)nnc1Nc1ccc(Oc2ccnc3cc(OC)cnc23)cc1` [compound 199], the EC50 was found to be 0.018 µM.
Same read-out and setting: the value for `COc1cnc2c(Oc3ccc(Nc4nnc(-c5ccc6c(c5)OCCO6)c5ccccc45)cc3)ccnc2c1` [compound 166] was 0.087 µM; that for `COc1cnc2c(Sc3ccc(Nc4nnc(-c5ccc(C)c(O)c5)c5ccccc45)cc3)ccnc2c1` [compound 451] was less than 0.0023 µM.
The same measure, in the same setting: under `COc1cnc2c(Oc3ccc(Nc4nnc(-c5ccccc5)c5ccsc45)cc3)ccnc2c1` [compound 218, N-(4-((7-(methyloxy)-1,5-naphthyridin-4-yl)oxy)phenyl)-4-phenylthieno[2,3-d]pyridazin-7-amine] stands 0.061 µM; under `COc1ccc2c(Oc3ccc(Nc4nnc(-c5ccc(Cl)cc5)c5ccccc45)cc3)ccnc2c1` [compound 345], 0.013 µM.
The same measure, in the same setting: under `c1ccc2c(Sc3ccc(Nc4nnc(-c5ccc6c(c5)OCO6)c5ccccc45)cc3)ccnc2c1` [compound 517] stands 0.011 µM; under `c1ccc(-c2nnc(Nc3ccc(Sc4ccnc5cc[nH]c45)cc3)c3ccccc23)cc1` [compound 462], 0.043 µM.
For `COc1cccc(-c2nnc(Nc3ccc(Oc4ccnc5cc(-c6cncn6C)sc45)cc3)c3ccccc23)n1` [compound 240], the EC50 amounted to 0.01 µM.
Still for that read-out and setting: the value for `Cc1cc2nccc(Sc3ccc(Nc4nnc(-c5ccc(Cl)cn5)c5ccccc45)cc3)c2s1` [compound 560] was 0.023 µM; that for `FC1(F)Oc2ccc(-c3nnc(Nc4ccc(Sc5ccnc6cccnc56)cc4)c4ccccc34)cc2O1` [compound 444] was 0.024 µM; that for `FC(F)Oc1cnc2c(Sc3ccc(Nc4nnc(-c5ccccc5)c5ccccc45)cc3)ccnc2c1` [Example 387, N-(4-(7-(difluoromethoxy)-1,5-naphthyridin-4-ylthio)phenyl)-4-phenylphthalazin-1-amine] was 0.12 µM.
As for `Cc1ccc(-c2nnc(Nc3ccc(Sc4ccnc5ccoc45)cc3)c3ccccc23)cn1` [compound 481], the EC50 was 0.032 µM.
As to `c1ccc2c(-c3ccc4c(c3)CCO4)nnc(Nc3ccc(Oc4ccnc5ccsc45)cc3)c2c1` [compound 272], the EC50 was determined as 0.006 µM.
The same measure, in the same setting: the value for `COc1cnc2c(Oc3ccc(Nc4nnc(-c5cn[nH]c5)c5ccccc45)cc3)ccnc2c1` [compound 212] was 0.501 µM.

The same assay, now with this note: Homo sapiens, HeLa, HeLa cells, average, read-out: 24h_4NPloidy EC50_IP (uM Avg).
With `CCc1cc(-c2ccccc2OC)nnc1Nc1ccc(Sc2ccnc3cc(OC)cnc23)cc1` [compound 609], the EC50 stood at 0.055 µM.
